Paper PMC6017431, “Role of Cationic Side Chains in the Antimicrobial Activity of C18G” (Molecules : A Journal of Synthetic Chemistry and Natural …, 2018)
Like-named read-outs stand apart in the source and are kept apart here. Non-standard residues stand in square brackets, D forms with d. Residues, ends and D or L forms follow the SMILES beside them. No end group written: not given here. Dap = NC[C@H](N)C(=O)O

Assays:
S. aureus ATCC: 27660 = type: cell-based, Staphylococcus aureus
Description: (§1) Each bacterial strain was streaked onto LB–Miller agar (BD-Difco, Franklin Lakes, NJ, USA) plates from a frozen stock collection (E. coli D31 [63] S. aureus ATCC: 27660, B. subtilis ATCC: 6051, P. aeruginosa PAO1 [17], and A. baumannii ATCC: 19606). After incubation to allow colony growth, plates stored in a refrigerator at 4 °C. Overnight cultures were inoculated with a single colony of each bacterial strain into fresh LB or Mueller Hinton broth (MH, BD-Difco) in sterile glass test tubes. Inoculated samples were placed in a 37 °C shaking incubator (250 rpm) for ~18 h. After the overnight incubation, a 1:200 dilution of the culture was made in fresh LB or MH for use in subsequent experiments.
(§2) Bacterial growth inhibition was investigated using the standard minimal inhibitory concentration (MIC) assay. Cultures of bacteria were grown as described above, subsequently diluted to ~10^5 cfu/mL in MH media. Subsequently, 90 μL of this diluted culture was added to wells of a sterile 96-well plate containing serially diluted aliquots of the peptides for a final volume in the well of 100 μL. The plate was covered and incubated at 37 °C for 18 h. After incubation the OD600 was measured with a Spectramax M5 multimode plate reader. Next, the minimal bactericidal concentration (MBC) was determined by taking 1 μL of culture from each well on the plate corresponding to peptide concentrations at and above the MIC and plating on a fresh LB-agar plate. The plate incubated overnight at 37 °C, and MBC was determined from the presence or absence of growth on each spot.

B. subtilis ATCC: 6051 = type: cell-based, Bacillus subtilis
Description: as §1, §2

E. coli outer membrane = E. coli outer membrane permeabilization (β-lactamase / nitrocefin); type: cell-based; settings: E. coli D31 in PBS, peptide up to 15 µM, 30 min exposure, absorbance 486 nm, at least 3 replicates
Description: Permeabilization of the E. coli outer membrane is monitored using the periplasmic enzyme β-lactamase and the chromogenic substrate nitrocefin. […] The full time course of the permeabilization assay is shown in the supplementary files (Figure S1).
(§3) Figure 4 E. coli membrane permeabilization. Chromogenic substrate breakdown after 30 min of exposure to peptides. (A) Outer membrane permeabilization assayed by nitrocefin breakdown. (B) Inner membrane permeabilization assayed by ONPG breakdown. In both panels colors represent C18G (green), C18G-Arg (red), C18G-His (gray), C18G-Orn (orange), C18G-Dap (blue).
Permeabilization of the E. coli outer membrane was performed as described previously. Briefly, a single colony of E. coli D31 was inoculated in LB Broth (Difco) containing […] ampicillin and allowed to grow at 37 °C with shaking overnight. The culture was diluted 1:200 in LB-Amp and incubated at 37 °C until the OD600 was ~0.2. The culture was subsequently centrifuged at 2500 rpm for 15 min. The pellet was resuspended in an equal volume of PBS and added to a 96-well plate containing serially diluted peptides or polymyxin B (positive control). Immediately before reading, nitrocefin was added to the wells (final concentration 0.25 mg/mL) and mixed by pipetting. The sample absorbance was measured at 486 nm for 90 min. All assays were performed at least in triplicate.

E. coli inner membrane = E. coli inner membrane permeabilization (β-galactosidase / ONPG); type: cell-based; settings: peptide up to 15 µM, 30 min time point, absorbance 420 nm, at least 3 replicates
Description: as §3
Permeabilization of the E. coli inner membrane is monitored with the cytoplasmic enzyme β-galactosidase and the chromogenic substrate ortho-nitrophenyl-β-galactoside (ONPG). This assay in conceptually similar to the outer membrane assay described above, but is focused only on the permeability of the inner membrane. The results are shown in Figure 4B for the 30 min time point of the assay, and the full time course is shown in the supplementary figures (Figure S2).
Inner membrane permeabilization was performed as described previously. The procedure follows that of the outer membrane permeabilization assay, described above, with several modifications. Bacteria were grown overnight in LB media lacking Amp, and dilutions were made in LB supplemented with IPTG. Assay plates were prepared the same, except that cells were not centrifuged before the assay, and were added to the plate directly in the culture medium. Positive control for the inner membrane assay was the cationic detergent CTAB. The substrate was ONPG dissolved in Z-buffer added to a final concentration 0.6 mg/mL in the wells. The sample absorbance was measured at 420 nm for 90 min. All assays were performed at least in triplicate

S. aureus membrane = S. aureus membrane permeabilization (propidium iodide, flow cytometry); type: cell-based; settings: 30 min, relative to CTAB positive control
Description: The membrane architecture varies greatly between Gram-positive and Gram-negative bacteria. The ability of the peptides to permeabilize a Gram-positive bacterial membrane was also investigated; however, in this case, the use of a bacterial enzyme and chromogenic substrate was not possible. Instead, membrane permeability was assessed using the DNA binding fluorophore propidium iodide (PI). The PI molecule is generally impermeable across the cell membrane under normal conditions, but upon permeabilization, PI can readily cross the membrane and bind to DNA, resulting in a dramatic increase in fluorescence emission intensity.
Figure 5 Membrane permeabilization. (A) Permeabilization of S. aureus membranes by peptides. Cultures of S. aureus were incubated with varying concentrations of peptide and 3.75 µg/mL propidium iodide (PI). PI fluorescence was measured via flow cytometry after 30 min of exposure to peptides. Percent leakage was determined based on the positive control CTAB (data not shown). (B) Peptide induced hemolysis. Defibrinated sheep red blood cells were incubated for 1 h with varying concentrations of peptide or control at 37 °C in sterile PBS. After pelleting the remaining cells, the absorbance of the supernatant was measured at 415 nm to detect released hemoglobin. Percent leakage was determined based on the positive control CTAB (Figure S3). All data is the average of at least 3 replicates, where error bars represent the standard deviation.
Flow cytometry was used to identify cell permeability by incorporation of propidium iodide (PI) into S. aureus under various concentrations of CTAB detergent, C18G, C18G-Arg, C18G-His, C18G-Orn, C18G-Dap peptides using a BD FACSCelesta flow cytometer. Approximately 10,000 cells per sample in 100 µL of PBS, permeabilization reagent, and PI 5.6 μM solution, were incubated for 30 min or 45 min at 23 °C counted in duplicate, and fluorescent signal was evaluated Ex 488 nm laser, Em 575 filter. Percentage of cells found to be permeable for all samples was established by gating around cells on histogram illustrating PI signal with known complete permeabilization CTAB 102 µM.

[1] = Trp fluorescence binding to lipid vesicles; settings: 2 µM peptide in PBS pH 7.0 titrated with SUVs up to 300 µM lipid, excitation 280 nm, 2-5 replicates
Excerpt: Based on the proposed mechanism of membrane disruption, the ability of the C18G peptides to interact with lipid vesicles was investigated. All of the sequences contain a Trp residue which can be used as a reporter of the local environment. As the peptide moves from the aqueous milieu to the bilayer surface, the Trp experiences a significant change in the polarity of the local environment. This change in environmental polarity results in a shift of the Trp emission spectrum from more red-shifted (aqueous) to more blue-shifted (bilayer bound). […] The shift in the emission spectrum can be quantified by changes in […] (λmax) or by a shift in the spectral barycenter.
Figure 2 Trp fluorescence emission to measure peptide binding to vesicles. […] Trp emission barycenter was calculated after each addition of vesicles and plotted as a function of total lipid concentration. […]
Measurements were performed on a JY-Horiba fluoromax4 instrument with emission and excitation slits set to 2.5 nm. For lipid binding/titration assays, samples were excited at 280 nm with emission measured over the range of 300–400 nm. […] The barycenter of the spectrum is an intensity-weighted average over the wavelengths measured, and Δbarycenter is the difference between the barycenter of the sample lacking lipid, and that of a given sample [32, 65]. […]

[2] = MH media, ~10^5 cfu/mL, 37 °C, 18 h, OD600

Compound	S. aureus MBC (S. aureus ATCC: 27660; ATCC: 27660, 18 h) [µM]	S. aureus MIC (S. aureus ATCC: 27660; ATCC: 27660, 18 h) [µM]	Fold increase in MIC relative to the parent sequence (S. aureus ATCC: 27660; against S. aureus) [fold]	B. subtilis MBC (B. subtilis ATCC: 6051; ATCC: 6051, 18 h) [µM]	B. subtilis MIC (B. subtilis ATCC: 6051; ATCC: 6051, 18 h) [µM]	Outer membrane permeabilization (nitrocefin breakdown) (E. coli outer membrane)	Inner membrane permeabilization (ONPG breakdown) (E. coli inner membrane)	Percent leakage (PI) of S. aureus membrane (S. aureus membrane; through 1.88 µM peptide) [%]	Percent leakage (PI) of S. aureus membrane (S. aureus membrane; 7.5 µM peptide) [%]	Percent leakage (PI) of S. aureus membrane (S. aureus membrane; 15 µM peptide) [%]	Binding to 3:1 PC/PG lipid vesicles (shift of Trp emission barycenter) [1]	S. aureus MIC (S. aureus ATCC: 27660; [2]) [µM]	B. subtilis MBC (B. subtilis ATCC: 6051; 1 µL from wells at and above MIC plated on LB-agar, overnight 37 °C) [µM]	B. subtilis MIC (B. subtilis ATCC: 6051; [2]) [µM]	Percent leakage (PI) of S. aureus membrane (S. aureus membrane; down through 3.75 µM peptide)	Binding to 100% PC lipid vesicles (shift of Trp emission barycenter) [1]
CC(C)C[C@H](NC(=O)[C@H](C)N)C(=O)N[C@@H](Cc1c[nH]c2ccccc12)C(=O)N[C@@H](CN)C(=O)N[C@@H](CN)C(=O)N[C@@H](CC(C)C)C(=O)N[C@@H](CC(C)C)C(=O)N[C@@H](CN)C(=O)N[C@@H](CN)C(=O)N[C@@H](CC(C)C)C(=O)N[C@@H](CC(C)C)C(=O)N[C@@H](CN)C(=O)N[C@@H](CO)C(=O)N[C@@H](C)C(=O)N[C@@H](CN)C(=O)N[C@@H](CN)C(=O)N[C@@H](CC(C)C)C(=O)NCC(N)=O [C18G-Dap] (H-ALW[Dap][Dap]LL[Dap][Dap]LL[Dap]SA[Dap][Dap]LG-NH2)	7.5	7.5	≤ 4	1.875	1.875	permeabilization to a lesser extent	little to no permeabilization									
CC(C)C[C@H](NC(=O)[C@H](C)N)C(=O)N[C@@H](Cc1c[nH]c2ccccc12)C(=O)N[C@@H](CCCN)C(=O)N[C@@H](CCCN)C(=O)N[C@@H](CC(C)C)C(=O)N[C@@H](CC(C)C)C(=O)N[C@@H](CCCN)C(=O)N[C@@H](CCCN)C(=O)N[C@@H](CC(C)C)C(=O)N[C@@H](CC(C)C)C(=O)N[C@@H](CCCN)C(=O)N[C@@H](CO)C(=O)N[C@@H](C)C(=O)N[C@@H](CCCN)C(=O)N[C@@H](CCCN)C(=O)N[C@@H](CC(C)C)C(=O)NCC(N)=O [C18G-Orn] (HELM PEPTIDE1{A.L.W.[Orn].[Orn].L.L.[Orn].[Orn].L.L.[Orn].S.A.[Orn].[Orn].L.G.[am]}$$$$V2.0)	1.875	1.875		7.5	3.75	near maximal permeabilization observed above 3.75 µM	very little observed leakage	> 50								
ALWHHLLHHLLHSAHHLG-NH2 [C18G-His]	15	15		>15	1.875	almost no permeabilization of the outer membrane except at 15 µM	little to no permeabilization		> 50	> 50	bound anionic bilayers with higher affinity than zwitterionic bilayers					
ALWKKLLKKLLKSAKKLG-NH2 [C18G]	3.75					near maximal permeabilization observed above 3.75 µM	highest degree of permeabilization					1.875	1.875	1.875		
ALWRRLLRRLLRSARRLG-NH2 [C18G-Arg]	3.75	3.75		1.875	1.875	near maximal permeabilization observed above 3.75 µM	induced less leakage								~ 90%	significant increase in binding to zwitterionic PC membranes compared to C18G
